In ChEMBL document CHEMBL1133494, “Inhibitors of bacterial tyrosyl tRNA synthetase: synthesis of four stereoisomeric analogues of the natural product SB-219383” (Bioorg Med Chem Lett, 2000) one finds IC50 and inhibition data, which are given here for three compounds.

The structures appear in SMILES notation.

Experiment [1] relates to Tyrosyl-tRNA synthetase (Staphylococcus aureus). The experiment can be described thus: Inhibitory activity of compound against tyrosyl tRNA synthetase from Staphylococcus aureus was determined up to 3 uM; IA means Inactive.
Experiment [2] concerns the target T1, Tyrosine--tRNA ligase, cytoplasmic (Homo sapiens) (UniProt P54577).
T1 sequence (whole entry): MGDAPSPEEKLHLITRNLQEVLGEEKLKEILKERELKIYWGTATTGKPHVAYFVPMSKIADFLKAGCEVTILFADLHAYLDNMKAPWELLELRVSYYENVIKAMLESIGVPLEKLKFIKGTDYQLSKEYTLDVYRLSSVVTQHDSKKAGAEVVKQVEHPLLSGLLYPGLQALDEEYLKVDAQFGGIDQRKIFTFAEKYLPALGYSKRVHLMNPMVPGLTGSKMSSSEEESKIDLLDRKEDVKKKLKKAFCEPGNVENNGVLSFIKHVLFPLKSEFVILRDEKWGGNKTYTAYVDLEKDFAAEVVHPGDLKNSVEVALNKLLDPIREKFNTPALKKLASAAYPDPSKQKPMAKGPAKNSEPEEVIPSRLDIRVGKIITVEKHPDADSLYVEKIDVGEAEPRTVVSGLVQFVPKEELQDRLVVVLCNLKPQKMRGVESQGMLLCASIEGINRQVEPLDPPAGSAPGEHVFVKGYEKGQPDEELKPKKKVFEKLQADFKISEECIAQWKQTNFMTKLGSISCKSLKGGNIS
The experiment can be described thus: Percentage inhibitory activity of compound against tyrosyl tRNA synthetase from mammalian cells was determined at 3 uM.

In the case of `N[C@@H](Cc1ccc(O)cc1)C(=O)N[C@@H](C(=O)O)[C@@H]1[C@@H](O)[C@H](O)[C@H](O)CN1O`, the IC50 entry in experiment [1] is reported as “Not Active”.

What is called inhibition is the drop in the measured response relative to a control, in per cent. Low values mean a response near the control, high ones a response far below the control. As to `N[C@@H](Cc1ccc(O)cc1)C(=O)N[C@H](C(=O)O)[C@H]1[C@H](O)[C@@H](O)[C@@H](O)CN1O`, the inhibition in experiment [2] is 11%.

For the compound `N[C@@H](Cc1ccc(O)cc1)C(=O)N[C@H](C(=O)O)[C@@H]1[C@@H](O)[C@H](O)[C@H](O)CN1O`, the IC50 result in experiment [1] was “Not Active”.
